In US10285989B2, “Pyrimidinone amide compounds as PDE2 inhibitors” (Merck Sharp & Dohme Corp., priority 2015, dated 2019) one finds Ki and inhibition data, which are given here for 23 compounds.

Molecules are shown by their SMILES. Like-named read-outs stand apart in the source and are kept apart here. Some results are limits rather than exact numbers.

One assay concerns the target Rhesus PDE2A3 (Macaca mulatta, UniProt B3VTJ2). Description: PDE2 fluorescence polarization (IMAP FP) inhibition assay, rhesus PDE2A3. It counts as biochemical, rhesus macaque. As to conditions: for inhibition at 1 µM: read-out: Rhesus PDE2 % inhibition at a given concentration - Lab A. The procedure: A Labcyte Echo 555 (Labcyte, Sunnyvale, Calif.) is used to dispense 200 nL from each well of the titration plate to the 384 well assay plate. Ten microliters of a solution of enzyme (1/2000 final dilution from aliquots; sufficient to produce 20% substrate conversion) was added to the assay plate. Next 10 uL of a separate solution of the substrate FAM-labeled cAMP (50 nM final concentration product # R^7506 from Molecular Devices) and the activator cGMP (1 uM final concentration), prepared in the assay buffer (10 mM Tris HCl, pH 7.2, 10 mM MgCl2, 0.05% NaN3 0.01% Tween-20, and 1 mM DTT) was added to the assay plate and shaken to mix. The reaction is allowed to proceed at room temperature for 60 minutes. A binding solution is then made from the kit components, comprised of 80% Solution A, 20% Solution B and binding reagent at a volume of 1/600 the total binding solution. The enzymatic reaction is stopped by addition of 60 μL of the binding solution to each well of the assay plates and the plates are sealed and shaken for 30 seconds. The plate was incubated at room temperature for at least one hour prior to determining the fluorescence polarization (FP). The parallel and perpendicular fluorescence of each well of the plate was measured using a Tecan Genios Pro plate reader (Tecan, Switzerland) or Perkin Elmer EnVision™ plate reader (Waltham, Mass.). Fluorescence polarization (mP) was calculated from the parallel (S) and perpendicular (P) fluorescence of each sample well and the analogous values for the median control well, containing only substrate (So and Po), using the following equation: Polarization (mP)=1000*(S/So−P/Po)/(S/So+P/Po).
Dose-inhibition profiles for each compound were characterized by fitting the mP data to a four-parameter equation given below.
An apparent (KM) for FAM-labeled cAMP of ˜10 uM was used.
(Fluorescence polarisation rises when a labelled molecule tumbles more slowly, as on binding a larger partner.)

A further assay deals with human PDE2A1 (Homo sapiens (Human), UniProt O00408). The assay can be described thus: PDE2 IMAP FP inhibition assay, human PDE2A1 (selectivity panel format). It counts as biochemical. The procedure: Selectivity for PDE2, as compared to other PDE families, was assessed using the IMAP® technology. Human PDE10A2 enzyme was prepared from cytosolic fractions of transiently transfected HEK cells.
A Labcyte POD 810 (Labcyte, Sunnyvale, Calif.) was used to dispense 200 nL from each well of the titration plate to make eleven copies of the assay plate for each titration, one copy for each PDE enzyme. A solution of each enzyme (dilution from aliquots, sufficient to produce 20% substrate conversion) and a separate solution of FAM-labeled cAMP or FAM-labeled cGMP from Molecular Devices (Sunnyvale, Calif., product # R7506 or cGMP#R7508), at a final concentration of 50 nM were made in the assay buffer (10 mM Tris HCl, pH 7.2, 10 mM MgCl2, 0.05% NaN3 0.01% Tween-20, and 1 mM DTT). Note that the substrate for PDE2 is 50 nM FAM cAMP containing 1000 nM of cGMP. The enzyme and the substrate were then added to the assay plates in two consecutive additions of 10 μL and then shaken to mix. The reaction was allowed to proceed at room temperature for 60 minutes. A binding solution was then made from the kit components, comprised of 80% Solution A, 20% Solution B and binding reagent at a volume of 1/600 the total binding solution. The enzymatic reaction was stopped by addition of 60 μL of the binding solution to each well of the assay plate. The plates were sealed and shaken for 10 seconds. The plates were incubated at room temperature for one hour, then the parallel and perpendicular fluorescence was measured using a Tecan Genios Pro plate reader (Tecan, Switzerland). […] The intrinsic PDE2 inhibitory activity of a compound which may be used in accordance with the present invention may be determined by these assays. […]

Where [1] appears, read: Lab A, read-out: Rhesus PDE2 Ki (nM) - Lab A.
The mark [2] stands for this setting: Lab A, read-out: Human PDE2 Ki (nM) - Lab A.
Where [3] appears, read: Rhesus PDE2 Ki (nM) - Lab B, Lab B.

Chain of human PDE2A1 (O00408 other isoform, or with tags, fused parts or gaps): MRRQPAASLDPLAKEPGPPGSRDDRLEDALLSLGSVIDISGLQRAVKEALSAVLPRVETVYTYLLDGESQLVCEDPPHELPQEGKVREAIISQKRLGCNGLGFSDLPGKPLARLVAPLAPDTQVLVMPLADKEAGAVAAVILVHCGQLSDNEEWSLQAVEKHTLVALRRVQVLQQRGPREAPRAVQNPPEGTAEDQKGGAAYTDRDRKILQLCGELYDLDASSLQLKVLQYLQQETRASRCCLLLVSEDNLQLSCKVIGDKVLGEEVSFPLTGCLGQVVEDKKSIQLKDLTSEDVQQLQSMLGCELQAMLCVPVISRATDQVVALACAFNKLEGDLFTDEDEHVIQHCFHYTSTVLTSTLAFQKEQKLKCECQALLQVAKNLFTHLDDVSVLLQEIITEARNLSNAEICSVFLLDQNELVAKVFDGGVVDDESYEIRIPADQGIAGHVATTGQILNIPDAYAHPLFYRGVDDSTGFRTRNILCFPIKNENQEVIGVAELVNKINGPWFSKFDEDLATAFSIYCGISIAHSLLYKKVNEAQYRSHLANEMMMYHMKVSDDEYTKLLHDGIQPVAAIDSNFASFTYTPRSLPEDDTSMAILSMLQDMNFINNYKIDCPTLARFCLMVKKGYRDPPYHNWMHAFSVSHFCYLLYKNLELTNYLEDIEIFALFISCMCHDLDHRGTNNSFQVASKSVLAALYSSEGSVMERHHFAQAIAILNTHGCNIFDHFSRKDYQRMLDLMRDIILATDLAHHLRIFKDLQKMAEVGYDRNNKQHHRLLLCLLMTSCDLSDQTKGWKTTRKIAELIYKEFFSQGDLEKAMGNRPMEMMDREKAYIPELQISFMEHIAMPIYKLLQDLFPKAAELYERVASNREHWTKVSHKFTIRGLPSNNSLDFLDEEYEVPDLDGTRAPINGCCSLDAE
Chain of Rhesus PDE2A3 (B3VTJ2 1-941): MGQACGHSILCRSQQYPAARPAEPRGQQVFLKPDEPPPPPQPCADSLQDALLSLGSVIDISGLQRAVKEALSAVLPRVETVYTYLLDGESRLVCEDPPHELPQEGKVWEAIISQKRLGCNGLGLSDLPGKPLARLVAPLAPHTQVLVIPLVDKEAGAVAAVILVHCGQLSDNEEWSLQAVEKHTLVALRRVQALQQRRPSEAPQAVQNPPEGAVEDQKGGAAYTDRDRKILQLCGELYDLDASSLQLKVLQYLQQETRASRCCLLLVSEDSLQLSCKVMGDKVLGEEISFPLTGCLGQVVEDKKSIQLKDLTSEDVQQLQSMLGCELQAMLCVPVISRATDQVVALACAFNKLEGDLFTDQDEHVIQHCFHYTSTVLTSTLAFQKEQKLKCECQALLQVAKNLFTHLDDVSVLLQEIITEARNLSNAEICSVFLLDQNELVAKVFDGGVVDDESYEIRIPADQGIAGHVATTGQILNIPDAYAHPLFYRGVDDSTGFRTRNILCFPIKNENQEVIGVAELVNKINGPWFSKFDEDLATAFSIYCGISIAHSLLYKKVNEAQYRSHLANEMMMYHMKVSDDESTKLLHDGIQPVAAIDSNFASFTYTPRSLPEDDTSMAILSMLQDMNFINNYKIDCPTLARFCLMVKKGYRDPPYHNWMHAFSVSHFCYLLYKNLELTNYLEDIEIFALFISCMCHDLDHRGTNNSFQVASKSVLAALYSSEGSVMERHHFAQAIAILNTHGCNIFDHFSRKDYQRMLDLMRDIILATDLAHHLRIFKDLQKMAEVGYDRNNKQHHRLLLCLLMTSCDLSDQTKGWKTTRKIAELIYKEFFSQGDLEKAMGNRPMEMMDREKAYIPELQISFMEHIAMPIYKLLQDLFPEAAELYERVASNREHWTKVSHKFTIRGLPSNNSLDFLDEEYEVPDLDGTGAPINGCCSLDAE

Usually Ki stands for the dissociation constant of the complex between target and ligand, obtained from inhibition or displacement. Consider `C[C@@H](NC(=O)c1cc(=O)[nH]c(N2CCCC2)n1)c1ccc(OC(F)(F)F)cc1` [Example 28, 6-oxo-2-pyrrolidin-1-yl-N-{(1R)-1-[4-(trifluoromethoxy)phenyl]ethyl}-1,6-dihydropyrimidine-4-carboxamide], for which the Ki at Rhesus PDE2A3 (setting [1]) was determined as 1.3 nM; on human PDE2A1 (setting [2]) it was 0.45 nM. The like results for `CCOc1nc(C(=O)N[C@H](C)c2ccc(C(F)(F)F)cc2)cc(=O)[nH]1` [Example 18, (R)-2-ethoxy-6-oxo-N-(1-(4-(trifluoromethyl)phenyl)ethyl)-1,6-dihydropyrimidine-4-carboxamide] were, in that order, 63 nM and 72 nM.

As for `CSc1nc(C(=O)N[C@H](C)c2ccc(C(F)(F)F)cc2)cc(=O)[nH]1` [Example 15, (R)-2-(methylthio)-6-oxo-N-(1-(4-(trifluoromethyl)phenyl)ethyl)-1,6-dihydropyrimidine-4-carboxamide], the inhibition constant Ki was 46 nM at Rhesus PDE2A3 (setting [1]) and 31 nM at human PDE2A1 (setting [2]).

Consider `CC(NC(=O)c1cc(=O)[nH]c(OC2CCNCC2)n1)c1ccc(C(F)(F)F)cc1` (centres unmarked) [Example 187, 6-oxo-2-(piperidin-4-yloxy)-N-{1-[4-(trifluoromethyl)phenyl]ethyl}-1,6-dihydropyrimidine-4-carboxamide], for which the Ki at Rhesus PDE2A3 (setting [1]) was more than 100000 nM.

On to `CC(NC(=O)c1cc(=O)[nH]c(OC2CCNC2)n1)c1ccc(C(F)(F)F)cc1` (centres unmarked) [Example 185, 6-oxo-2-(pyrrolidin-3-yloxy)-N-{1-[4-(trifluoromethyl)phenyl]ethyl}-1,6-dihydropyrimidine-4-carboxamide], for which the Ki at Rhesus PDE2A3 (setting [1]) is more than 100000 nM. Consider `C[C@@H](NC(=O)c1cc(=O)[nH]c(N)n1)c1ccc(C(F)(F)F)cc1` [Example 134, 2-amino-6-oxo-N-{(1R)-1-[4-(trifluoromethyl)phenyl]ethyl}-1,6-dihydropyrimidine-4-carboxamide], for which the Ki came out at 272 nM at Rhesus PDE2A3 (setting [1]) and 144 nM on human PDE2A1 (setting [2]). Consider `COC(C)(C)CCOc1nc(C(=O)NC(C)c2ccc(C(F)(F)F)cc2)cc(=O)[nH]1` (centres unmarked) [Example 186, 2-(3-methoxy-3-methylbutoxy)-6-oxo-N-{1-[4-(trifluoromethyl)phenyl]ethyl}-1,6-dihydro pyrimidine-4-carboxamide], for which the inhibitory constant (Ki) on Rhesus PDE2A3 (setting [1]) came to 352 nM.

With `COc1nc(C(=O)N[C@H](C)c2ccc(C(F)(F)F)cc2)cc(=O)[nH]1` [Example 17, (R)-2-methoxy-6-oxo-N-(1-(4-(trifluoromethyl)phenyl)ethyl)-1,6-dihydropyrimidine-4-carboxamide], the inhibition constant Ki at Rhesus PDE2A3 (setting [1]) was 130 nM; on human PDE2A1 (setting [2]), 115 nM. As to `COCC1CCN(c2nc(C(=O)N[C@@H](c3ccc(C(F)(F)F)cc3)C(C)(C)C)cc(=O)[nH]2)C1` (stereo partly drawn) [Example 14, N—((R)-2,2-dimethyl-1-(4-(trifluoromethyl)phen)propyl)-2-(3-(methoxymethyl)pyrrolidin-1-yl)-6-oxo-1,6-dihydropyrimidine-4-carboxamide], the inhibition constant Ki came out at 0.41 nM at Rhesus PDE2A3 (setting [3]) and 0.34 nM on human PDE2A1 (Lab B, read-out: Human PDE2 Ki (nM) - Lab B). For the compound `CC(NC(=O)c1cc(=O)[nH]c(OC2CCCN(C)C2)n1)c1ccc(C(F)(F)F)cc1` (centres unmarked) [Example 182, 2-[(1-methylpiperidin-3-yl)oxy]-6-oxo-N-{1-[4-(trifluoromethyl)phenyl]ethyl}-1,6-dihydro pyrimidine-4-carboxamide], the inhibition constant (Ki) at Rhesus PDE2A3 (setting [1]) was 55000 nM. With `CSc1nc(C(=O)N[C@@H](C)c2ccc(C(F)(F)F)cc2)cc(=O)[nH]1` [Example 16, (S)-2-(methylthio)-6-oxo-N-(1-(4-(trifluoromethyl)phenyl)ethyl)-1,6-dihydropyrimidine-4-carboxamide], the Ki on Rhesus PDE2A3 (setting [1]) was 13300 nM. In the case of `CC(NC(=O)c1cc(=O)[nH]c(OC2CCN(C)C2)n1)c1ccc(C(F)(F)F)cc1` (centres unmarked) [Example 181, 2-[(1-methylpyrrolidin-3-yl)oxy]-6-oxo-N-{1-[4-(trifluoromethyl)phenyl]ethyl}-1,6-dihydro pyrimidine-4-carboxamide], the inhibition constant (Ki) on Rhesus PDE2A3 (setting [1]) was more than 100000 nM. In turn, `CC(C)C(C)(NC(=O)c1cc(=O)[nH]c(N(C)C)n1)c1ccc(S(F)(F)(F)(F)F)cc1` (single isomer, unassigned) [Example 172, (R)- or (S)-2-dimethylamino)-N-{1,2-dimethyl-1-[4-(pentafluoro-λ^6-sulfanyl)phenyl]propyl}-6-oxo-1,6-dihydropyrimidine-4-carboxamide] yielded a Ki on Rhesus PDE2A3 (setting [3]) of 154 nM. On to `CC(NC(=O)c1cc(=O)[nH]c(OC2COC2)n1)c1ccc(C(F)(F)F)cc1` (centres unmarked) [Example 192, 2-(oxetan-3-yloxy)-6-oxo-N-{1-[4-(trifluoromethyl)phenyl]ethyl}-1,6-dihydropyrimidine-4-carboxamide], for which the Ki on Rhesus PDE2A3 (setting [1]) amounted to 11500 nM. With `CC(NC(=O)c1cc(=O)[nH]c(OC2CCN(C)CC2)n1)c1ccc(C(F)(F)F)cc1` (centres unmarked) [Example 190, 2-[(1-methylpiperidin-4-yl)oxy]-6-oxo-N-{1-[4-(trifluoromethyl)phenyl]ethyl}-1,6-dihydro-pyrimidine-4-carboxamide], the Ki at Rhesus PDE2A3 (setting [1]) was more than 100000 nM. Take `C[C@@H](NC(=O)c1cc(=O)[nH]c(-n2cccn2)n1)c1ccc(C(F)(F)F)cc1` [Example 9, (R)-6-oxo-2-(1H-pyrazol-1-yl)-N-(1-(4-(trifluoromethyl)phenyl)ethyl)-1,6-dihydropyrimidine-4-carboxamide]: the inhibition at 1 µM on Rhesus PDE2A3 (Lab A) amounted to 26%. Take `CNCCCOc1nc(C(=O)NC(C)c2ccc(C(F)(F)F)cc2)cc(=O)[nH]1` (centres unmarked) [Example 180, 2-[3-(methylamino)propoxy]-6-oxo-N-{1-[4-(trifluoromethyl)phenyl]ethyl}-1,6-dihydro-pyrimidine-4-carboxamide]: the Ki at Rhesus PDE2A3 (setting [1]) was found to be 86000 nM.

Turning to `CC(NC(=O)c1cc(=O)[nH]c(OCCN(C)C)n1)c1ccc(C(F)(F)F)cc1` (centres unmarked) [Example 184, 2-[2-(dimethylamino)ethoxy]-6-oxo-N-{1-[4-(trifluoromethyl)phenyl]ethyl}-1,6-dihydro-pyrimidine-4-carboxamide], the Ki at Rhesus PDE2A3 (setting [1]) was 72000 nM. For the compound `CC(NC(=O)c1cc(=O)[nH]c(OC2CCCNC2)n1)c1ccc(C(F)(F)F)cc1` (centres unmarked) [Example 191, 6-oxo-2-(piperidin-3-yloxy)-N-{1-[4-(trifluoromethyl)phenyl]ethyl}-1,6-dihydropyrimidine-4-carboxamide], the Ki at Rhesus PDE2A3 (setting [1]) is more than 100000 nM. Still for that read-out and setting: in the case of `C[C@@H](NC(=O)c1cc(=O)[nH]c(Oc2ccccc2)n1)c1ccc(C(F)(F)F)cc1` [Example 19, (R)-6-oxo-2-phenoxy-N-(1-(4-(trifluoromethyl)phenyl)ethyl)-1,6-dihydropyrimidine-4-carboxamide] it was 2930 nM. As to `CC(NC(=O)c1cc(=O)[nH]c(OC2CCOC2)n1)c1ccc(C(F)(F)F)cc1` (centres unmarked) [Example 193, 6-oxo-2-(tetrahydrofuran-3-yloxy)-N-{1-[4-(trifluoromethyl)phenyl]ethyl}-1,6-dihydropyrimidine-4-carboxamide], at Rhesus PDE2A3 (setting [1]), the Ki amounted to 1060 nM. Regarding `Cc1ccn(-c2nc(C(=O)N[C@H](C)c3ccc(C(F)(F)F)cc3)cc(=O)[nH]2)n1` [Example 8, (R)-2-(3-methyl-1H-pyrazol-1-yl)-6-oxo-N-(1-(4-(trifluoromethyl)phenyl)ethyl)-1,6-dihydropyrimidine-4-carboxamide], the inhibition at 1 µM at Rhesus PDE2A3 (Lab A) came to 30%. Turning to `CNCCOc1nc(C(=O)NC(C)c2ccc(C(F)(F)F)cc2)cc(=O)[nH]1` (centres unmarked) [Example 189, 2-[2-(methylamino)ethoxy]-6-oxo-N-{1-[4-(trifluoromethyl)phenyl]ethyl}-1,6-dihydropyrimidine-4-carboxamide], on Rhesus PDE2A3 (setting [1]), the Ki came to 9310 nM.
